In patent EP0958820A1, “Use of an imidazol derivative for the manufacture of a medicament for treating auto-immunodiseases” (Sanofi-Synthélabo, priority 1998, dated 1999):
Structures can show the parent of a compound that is named as a salt.

Key:
Type in all cases: cell-based
[1] = system: IL-4 production from mouse BMMC; test: Antigen-induced IL-4 production from mouse BMMC (ELISA)
Method: (§1) • 1. Test drugs Mizolastine and terfenadine used were synthesised according to well known method in the art. Ketotifen fumarate (hereinafter 'ketotifen') was obtained from Toa Boshoku and dexamethasone from Sigma. • 2. Animals […] female mice and Balb/c female mice were used. • 3. Preparation of bone marrow-derived mast cells (hereinafter 'BMMC') Mouse BMMC were prepared in accordance with the method of Saito et al. J. Immunol. 138: 3927-3934, 1987. That is to say, femoral bone marrow cells from female CBA/J mice were suspended to concentrations of 2-5 x 10^5/ml in RPMI 1640 medium to which 50% of WEHI-3 culture supernatant had been added (containing 10% FBS, 5 x 10^-5M 2-mercaptoethanol, 50IU/ml penicillin, […] streptomycin). • 4. Production of IL-4 and TNF-α from mouse BMMC A 1/250 volume of anti-mouse DNP-IgE monoclonal antibody (Seikagaku Kogyo, […]) was added to mouse BMMC (2 x 10^6 cells/ml) and they were further sensitised by being incubated overnight. The sensitised BMMC were washed three times with RPMI 1640 medium, then suspended in RPMI 1640 medium to which 50% of WEHI-3 culture supernatant had been added to give 1.25 x 10^6 cells/ml (IL-4) or 3.75 x 10^6 cells/ml (TNF-α ). Having added 40 µl of a test drug solution prepared as a ten-fold dilution to 320 µl/well of the cell suspension and treated the cells for 30 minutes to one hour at 37°C in 5% CO2, antigen stimulation was applied adding 40 µl of a solution of dinitrophenyl human serum albumin (Sigma; hereinafter 'DNP-HSA'; 300ng/ml) (reaction solution 400 µl/well/48 well plate, final cell concentration 1∼3 x 10^6 cells/ml, final antigen concentration 30ng/ml). The level of the cytokine in the supernatant fluid from the culture was assayed by ELISA 18 hours (IL-4) or 4 hours (TNF-α ) following stimulation with the antigen. • 5. […] The level of TNF-α in the culture supernatant fluid was determined by ELISA 18 hours after stimulating with okadaic acid. • 6. […]

[2] = system: TNF-α production from mouse BMMC; test: Antigen-induced TNF-α production from mouse BMMC (ELISA); conditions: 4 hours after antigen
Method: as §1

[3] = system: TNF-α production from mouse macrophages; test: Okadaic acid-induced TNF-α production from mouse peritoneal macrophages (ELISA); conditions: Macrophage, okadaic acid 0.2 µM, 18 hours
Method: as §1, with “).” for “). Having added 40 µl of a test drug solution prepared as a ten-fold dilution to 320 µl/well of the cell suspension and treated the cells for 30 minutes to one hour at 37°C in 5% CO2, antigen stimulation was applied adding 40 µl of a solution of dinitrophenyl human serum albumin (Sigma; hereinafter 'DNP-HSA'; 300ng/ml) (reaction solution 400 µl/well/48 well plate, final cell concentration 1∼3 x 10^6 cells/ml, final antigen concentration 30ng/ml). The level of the cytokine in the supernatant fluid from the culture was assayed by ELISA 18 hours (IL-4) or 4 hours (TNF-α ) following stimulation with the antigen. • 5.”

`C[C@@H]1C[C@H]2[C@@H]3CCC4=CC(=O)C=C[C@]4(C)[C@@]3(F)[C@@H](O)C[C@]2(C)[C@@]1(O)C(=O)CO` [Dexamethasone, dexamethasone] gave an inhibition at 1 µM ([1]; Mus musculus, at 1 µM, DNP-HSA stimulated, anti-DNP-IgE sensitised BMMC, 18 hours) of 61.6% and an inhibition at 1 µM ([2]; Mus musculus, at 1 µM) of 68.7%.
In the case of `CN1CCC(=C2c3ccccc3CC(=O)c3sccc32)CC1` [Ketotifen, Ketotifen fumarate], the inhibition at 10 µM ([1]; Mus musculus, at 10 µM, DNP-HSA stimulated, anti-DNP-IgE sensitised BMMC, 18 hours) is reported as 65.6% and the “activity against TNF-α production” value ([2]; 0.1∼10 µM) is reported as “no activity”.
With `CC(C)(C)c1ccc(C(O)CCCN2CCC(C(O)(c3ccccc3)c3ccccc3)CC2)cc1` (stereo not shown) [terfenadine] the “activity on IL-4 production” value ([1]; concentrations of 0.01∼1 µM) was “no activity”, the “activity against TNF-α production” value ([2]; 0.01∼1 µM) was “no activity” and the inhibition at 1 µM [3] was 24.6%.
